From PMC12274840 (The Journal of Biological Chemistry, 2025)
≈ marks a conversion by molar mass, not a printed value. Like-named read-outs stand apart in the source and are kept apart here.

Legend:
[1] = target: T1, CTX-M-14 Y105G (Escherichia coli, UniProt Q9L5C7, Y108G); format: biochemical
T1 construct: 29 to 291 of CTX-M-14 (Q9L5C7); His tag with TEV cleavage site (N); made in house; host or cells: E. coli BL21 (DE3) pLysS

[2] = test system: E. coli KA797 cells carrying CTX-M-14 position 105 library; format: cell-based
[3] = target: T2, BlaC WT (Mycobacterium tuberculosis, UniProt P9WKD3); format: biochemical; settings: pH 6.4
T2 construct: correspond to residue numbers 41-307 of BlaC (Uniprot entry P9WKD3-1); His tag with TEV cleavage site (N); made in house; host or cells: E. coli BL21 (DE3) pLysS

[4] = target: TEM-1 WT (Escherichia coli, UniProt P62593)
[5] = test system: E. coli KA797 cells carrying pUK21 with BlaC WT (Tat); experiment: microbe, parasite or virus in culture; format: cell-based; settings: Escherichia coli, antibiotic alone
[6] = test system: E. coli KA797 cells carrying KPC-2 position 105 library; format: cell-based; settings: selection with labelled antibiotic
[7] = test system: E. coli KA797 cells carrying NmcA position 105 library; format: cell-based
[8] = target: TEM-1 Y105G (Escherichia coli, UniProt P62593, Y103G); experiment: Steady-state kinetics of substrate hydrolysis, TEM-1 Y105G; format: biochemical; settings: phosphate buffer pH 6.4, 25 °C
[9] = test system: E. coli KA797 cells carrying pUK21 with TEM-1 WT (Sec); experiment: microbe, parasite or virus in culture; format: cell-based; settings: Escherichia coli, antibiotic alone
[10] = test system: E. coli KA797 cells carrying pUK21 with KPC-2 (Tat); experiment: microbe, parasite or virus in culture; format: cell-based; settings: Escherichia coli, antibiotic alone
[11] = read-out: KM^app, phosphate buffer pH 6.4, 25 °C

## CC1(C)S[C@@H]2[C@H](NC(=O)[C@H](N)c3ccccc3)C(=O)N2[C@H]1C(=O)O [ampicillin]
[1]; phosphate buffer pH 6.4, 25 °C
  kcat: 48 ± 2 s⁻¹
[1]; [11]
  Km: 297 ± 10 µM
[2]; CTX-M-14 AA 105 Ala
  Significance of average fitness: -
[2]; CTX-M-14 AA 105 Arg
  Significance of average fitness: -
[2]; CTX-M-14 AA 105 Asn
  Significance of average fitness: -
[2]; CTX-M-14 AA 105 Asp
  Significance of average fitness: -
[2]; CTX-M-14 AA 105 Cys
  Significance of average fitness: -
[2]; CTX-M-14 AA 105 Gln
  Significance of average fitness: -
[2]; CTX-M-14 AA 105 Glu
  Significance of average fitness: -
[2]; CTX-M-14 AA 105 Gly
  Significance of average fitness: -
[2]; CTX-M-14 AA 105 His
  Significance of average fitness: -
[2]; CTX-M-14 AA 105 Ile
  Significance of average fitness: -
[2]; CTX-M-14 AA 105 Leu
  Significance of average fitness: -
[2]; CTX-M-14 AA 105 Lys
  Significance of average fitness: -
[2]; CTX-M-14 AA 105 Met
  Significance of average fitness: -
[2]; CTX-M-14 AA 105 Pro
  Significance of average fitness: -
[2]; CTX-M-14 AA 105 Ser
  Significance of average fitness: -
[2]; CTX-M-14 AA 105 Thr
  Significance of average fitness: -
[2]; CTX-M-14 AA 105 Val
  Significance of average fitness: -
[2]; CTX-M-14 WT (Tyr 105)
  WT abs Fi 2 (absolute fitness of wild type, Replicate 2): 0.605
[3]
  kcat: 14 ± 2 s⁻¹
[3]; read-out: KM^app
  Km: 68 ± 3 µM
[4]; phosphate buffer pH 6.4, 25 °C
  kcat: 2359 ± 16 s⁻¹
[4]; [11]
  Km: 72 ± 1 µM
[5]
  MIC: 50 µg/mL (≈ 143 µM)
[6]; KPC-2 AA 105 = Ala
  Fi AVG (average fitness of replicates): -2.717
[6]; KPC-2 AA 105 = Arg
  Fi AVG (average fitness of replicates): -1.311
  Significance of average fitness: -
[6]; KPC-2 AA 105 = Asn
  Fi AVG (average fitness of replicates): -2.270
  Significance of average fitness: -
[6]; KPC-2 AA 105 = Cys
  Fi AVG (average fitness of replicates): -1.421
  Significance of average fitness: -
[6]; KPC-2 AA 105 = Gln
  Fi AVG (average fitness of replicates): -2.210
  Significance of average fitness: -
[6]; KPC-2 AA 105 = Glu
  Fi AVG (average fitness of replicates): -2.582
  Significance of average fitness: -
[6]; KPC-2 AA 105 = Gly
  Fi AVG (average fitness of replicates): -1.606
  Significance of average fitness: -
[6]; KPC-2 AA 105 = His
  Fi AVG (average fitness of replicates): -0.658
[6]; KPC-2 AA 105 = Leu
  Fi AVG (average fitness of replicates): -1.411
  Significance of average fitness: -
[6]; KPC-2 AA 105 = Met
  Fi AVG (average fitness of replicates): -2.639
  Significance of average fitness: -
[6]; KPC-2 AA 105 = Phe
  Fi AVG (average fitness of replicates): -0.181
[6]; KPC-2 AA 105 = Pro
  Fi AVG (average fitness of replicates): -1.601
  Significance of average fitness: -
[6]; KPC-2 AA 105 = Ser
  Fi AVG (average fitness of replicates): -2.329
  Significance of average fitness: -
[6]; KPC-2 AA 105 = Thr
  Fi AVG (average fitness of replicates): -2.338
[6]; KPC-2 AA 105 = Trp (WT, reference)
  Fi AVG (average fitness of replicates): 0.000
[6]; KPC-2 AA 105 = Tyr
  Fi AVG (average fitness of replicates): -1.608
  Significance of average fitness: -
[6]; KPC-2 AA 105 = Val
  Fi AVG (average fitness of replicates): -2.672
  Significance of average fitness: -
[6]; KPC-2 WT (Trp 105), replicate 1
  WT abs Fi 1 (absolute fitness): 0.183
[6]; KPC-2 WT (Trp 105), replicate 2
  WT abs Fi 2 (absolute fitness): 0.061
[6]; KPC-2 WT (Trp 105), replicate 3
  WT abs Fi 3 (absolute fitness): 0.422
[7]; NmcA AA 105 Ala
  Fi AVG (average fitness of replicates): -0.604
  Significance of average fitness: -
[7]; NmcA AA 105 Arg
  Fi AVG (average fitness of replicates): -0.595
  Significance of average fitness: -
[7]; NmcA AA 105 Asn
  Fi AVG (average fitness of replicates): -0.193
  Significance of average fitness: -
[7]; NmcA AA 105 Asp
  Fi AVG (average fitness of replicates): -0.514
  Significance of average fitness: -
[7]; NmcA AA 105 Cys
  Fi AVG (average fitness of replicates): -0.572
  Significance of average fitness: -
[7]; NmcA AA 105 Gln
  Fi AVG (average fitness of replicates): -0.362
  Significance of average fitness: -
[7]; NmcA AA 105 Glu
  Fi AVG (average fitness of replicates): -0.554
  Significance of average fitness: -
[7]; NmcA AA 105 Gly
  Fi AVG (average fitness of replicates): -0.012
[7]; NmcA AA 105 His
  Fi AVG (average fitness of replicates): 0.000
[7]; NmcA AA 105 Ile
  Fi AVG (average fitness of replicates): -0.668
  Significance of average fitness: -
[7]; NmcA AA 105 Leu
  Fi AVG (average fitness of replicates): -0.515
  Significance of average fitness: -
[7]; NmcA AA 105 Lys
  Fi AVG (average fitness of replicates): -0.761
  Significance of average fitness: -
[7]; NmcA AA 105 Met
  Fi AVG (average fitness of replicates): -0.296
  Significance of average fitness: -
[7]; NmcA AA 105 Phe
  Fi AVG (average fitness of replicates): -0.065
[7]; NmcA AA 105 Pro
  Fi AVG (average fitness of replicates): -0.462
  Significance of average fitness: -
[7]; NmcA AA 105 Ser
  Fi AVG (average fitness of replicates): -0.413
  Significance of average fitness: -
[7]; NmcA AA 105 Thr
  Fi AVG (average fitness of replicates): -0.905
  Significance of average fitness: -
[7]; NmcA AA 105 Trp
  Fi AVG (average fitness of replicates): 0.277
  Significance of average fitness: +
[7]; NmcA AA 105 Tyr
  Fi AVG (average fitness of replicates): 0.049
[7]; NmcA AA 105 Val
  Fi AVG (average fitness of replicates): -0.608
  Significance of average fitness: -
[7]; NmcA WT, replicate 1
  WT abs Fi 1 (absolute fitness): 0.229
[7]; NmcA WT, replicate 2
  WT abs Fi 2 (absolute fitness): 0.425
[8]
  kcat: 601 ± 9 s⁻¹
[9]
  MIC: 12800 µg/mL (≈ 36600 µM)
[10]
  MIC: 200 µg/mL (≈ 572 µM)
